Columns and labels:
[1] = biological target: GDP-bound HRAS wild-type protein (Homo sapiens, UniProt P01112); assay: Binding to HRAS by surface plasmon resonance (SPR), Single Cycle Kinetics; conditions: SPR, GDP-bound HRAS wild-type vs GDP-bound KRAS wild-type
[2] = biological target: GDP-bound NRAS wild-type protein (Homo sapiens, UniProt P01111); assay: Binding to NRAS by surface plasmon resonance (SPR), Single Cycle Kinetics; conditions: SPR, GDP-bound NRAS wild-type vs GDP-bound KRAS wild-type
GDP-bound NRAS wild-type protein, sequence (P01111 whole entry): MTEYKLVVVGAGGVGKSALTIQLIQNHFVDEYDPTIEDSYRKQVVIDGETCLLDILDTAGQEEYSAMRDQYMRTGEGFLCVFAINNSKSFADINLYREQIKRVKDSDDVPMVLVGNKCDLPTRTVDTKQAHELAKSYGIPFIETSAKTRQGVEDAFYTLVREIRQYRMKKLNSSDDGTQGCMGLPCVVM

GDP-bound HRAS wild-type protein, sequence (P01112 whole entry): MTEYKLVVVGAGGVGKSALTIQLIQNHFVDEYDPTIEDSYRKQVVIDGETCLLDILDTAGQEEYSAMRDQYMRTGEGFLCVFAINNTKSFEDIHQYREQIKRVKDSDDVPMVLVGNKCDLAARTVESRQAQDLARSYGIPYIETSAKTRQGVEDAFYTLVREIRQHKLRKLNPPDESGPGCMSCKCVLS

SMILES	HRAS/KRAS (ratio of KD value with respect to HRAS to KD value with respect to KRAS) [1]	NRAS/KRAS (ratio of KD value with respect to NRAS to KD value with respect to KRAS) [2]
CCC[C@H]1C(=O)N[C@@H](C(CC)CC)C(=O)N(C)CC(=O)N(C)[C@H]2C/C=C\CCN(C2=O)[C@@H](Cc2ccc(C)cc2)C(=O)N(C)CC(=O)N[C@@H](CCc2ccc(C(F)(F)F)c(Cl)c2)C(=O)N2C[C@H](OCC)C[C@H]2C(=O)NC2(CC(C)(C)C2)C(=O)N(C)[C@@H](C2CCCC2)C(=O)N(C)[C@H](C(=O)N(C)C)CC(=O)N1C [PP2209]	A (a compound having 10 or more and less than 20 is denoted as A)	A (a compound having 10 or more and less than 20 is denoted as A)
CCC[C@H]1C(=O)N[C@@H]([C@@H](C)CC)C(=O)N(C)CC(=O)N(C)[C@H]2C/C=C\CCN(C2=O)[C@@H](Cc2ccc(C)cc2)C(=O)N(C)CC(=O)N[C@@H](CCc2ccc(C(F)(F)F)c(Cl)c2)C(=O)N2C[C@H](C)C[C@H]2C(=O)NC2(CC(C)(C)C2)C(=O)N(C)[C@@H](C2CCCC2)C(=O)N(C)[C@H](C(=O)N(C)C)CC(=O)N1C [PP2210]	B (a compound having 3 or more and less than 10 is denoted as B)	A (a compound having 10 or more and less than 20 is denoted as A)
CCC[C@H]1C(=O)N[C@@H]([C@@H](C)CC)C(=O)N(C)CC(=O)N(C)[C@H]2C/C=C\CCN(C2=O)[C@@H](Cc2ccc(C)cc2)C(=O)N(C)CC(=O)N[C@@H](CCc2ccc(C(F)(F)F)c(Cl)c2)C(=O)N2C[C@H](CC)C[C@H]2C(=O)NC2(CC(C)(C)C2)C(=O)N(C)[C@@H](C2CCCC2)C(=O)N(C)[C@H](C(=O)N(C)C)CC(=O)N1C [PP2212]	B (a compound having 3 or more and less than 10 is denoted as B)	A (a compound having 10 or more and less than 20 is denoted as A)
CCC[C@@H]1C[C@H]2C(=O)NC3(CC(C)(C)C3)C(=O)N(C)[C@@H](C3CCCC3)C(=O)N(C)[C@H](C(=O)N(C)C)CC(=O)N(C)[C@@H](CCC)C(=O)N[C@@H]([C@@H](C)CC)C(=O)N(C)CC(=O)N(C)[C@H]3C/C=C\CCN(C3=O)[C@@H](Cc3ccc(C)cc3)C(=O)N(C)CC(=O)N[C@@H](CCc3ccc(C(F)(F)F)c(Cl)c3)C(=O)N2C1 [PP2214]	A (a compound having 10 or more and less than 20 is denoted as A)	A (a compound having 10 or more and less than 20 is denoted as A)
CCC[C@H]1C(=O)N[C@@H]([C@@H](C)CC)C(=O)N(C)CC(=O)N(C)[C@H]2C/C=C\CCN(C2=O)[C@@H](Cc2ccc(C)cc2)C(=O)N(C)CC(=O)N[C@@H](CCc2cc(F)c(C(F)(F)F)c(F)c2)C(=O)N2C[C@H](CC)C[C@H]2C(=O)NC2(CCCC2)C(=O)N(C)[C@@H](C2CCCC2)C(=O)N(C)[C@H](C(=O)N(C)C)CC(=O)N1C [PP2216]	A (a compound having 10 or more and less than 20 is denoted as A)	A (a compound having 10 or more and less than 20 is denoted as A)
CCCOC[C@H]1C(=O)N[C@@H]([C@@H](C)CC)C(=O)N(C)CC(=O)N(C)[C@H]2C/C=C\CCN(C2=O)[C@@H](Cc2ccc(C)cc2)C(=O)N(C)CC(=O)N[C@@H](CCc2cc(F)c(C(F)(F)F)c(F)c2)C(=O)N2C[C@H](CC)C[C@H]2C(=O)NC2(CCCC2)C(=O)N(C)[C@@H](C2CCCC2)C(=O)N(C)[C@H](C(=O)N(C)C)CC(=O)N1C [PP2218]	A (a compound having 10 or more and less than 20 is denoted as A)	A (a compound having 10 or more and less than 20 is denoted as A)
CCC[C@H]1C(=O)N[C@@H]([C@H](C)CC)C(=O)N(C)CC(=O)N(C)[C@H]2C/C=C\CCN(C2=O)[C@@H](Cc2ccc(C)cc2)C(=O)N(C)CC(=O)N[C@@H](CCc2ccc(C(F)(F)F)c(Cl)c2)C(=O)N2C[C@H](OCC)C[C@H]2C(=O)NC2(CC(C)(C)C2)C(=O)N(C)[C@@H](CC(C)(C)C)C(=O)N(C)[C@H](C(=O)N(C)C)CC(=O)N1C [PP2219]	A (a compound having 10 or more and less than 20 is denoted as A)	A (a compound having 10 or more and less than 20 is denoted as A)
CC[C@@H]1C[C@H]2C(=O)NC3(CCC3)C(=O)N(C)[C@@H](C3CCCC3)C(=O)N(C)[C@H](C(=O)N(C)C)CC(=O)N(C)[C@@H](CC(C)C)C(=O)N[C@@H]([C@@H](C)CC)C(=O)N(C)CC(=O)N(C)[C@H]3C/C=C\CCN(C3=O)[C@@H](Cc3ccc(C)cc3)C(=O)N(C)CC(=O)N[C@@H](CCc3cc(F)c(C(F)(F)F)c(F)c3)C(=O)N2C1 [PP2220]	A (a compound having 10 or more and less than 20 is denoted as A)	A (a compound having 10 or more and less than 20 is denoted as A)
CCC[C@H]1C(=O)N[C@@H]([C@H](C)CC)C(=O)N(C)CC(=O)N(C)[C@H]2C/C=C\CCN(C2=O)[C@@H](Cc2ccc(C)cc2)C(=O)N(C)CC(=O)N[C@@H](CCc2ccc(C(F)(F)F)c(Cl)c2)C(=O)N2C[C@H](OCC)C[C@H]2C(=O)NC2(CC(C)(C)C2)C(=O)N(C)[C@@H](C2CCCC2)C(=O)N(C)[C@H](C(=O)N(C)C)CC(=O)N1C [PP2221]	A (a compound having 10 or more and less than 20 is denoted as A)	A (a compound having 10 or more and less than 20 is denoted as A)
CC[C@H](C)[C@@H]1NC(=O)[C@H](CC(C)C)N(C)C(=O)C[C@@H](C(=O)N(C)C)N(C)C(=O)[C@H](C2CCCC2)N(C)C(=O)C2(CC(C)(C)C2)NC(=O)[C@@H]2C[C@@H](C)CN2C(=O)[C@H](CCc2cc(F)c(C(F)(F)F)c(F)c2)NC(=O)CN(C)C(=O)[C@H](Cc2ccc(C)cc2)N2CC/C=C\C[C@@H](C2=O)N(C)C(=O)CN(C)C1=O [PP2223]	A (a compound having 10 or more and less than 20 is denoted as A)	A (a compound having 10 or more and less than 20 is denoted as A)
CCC[C@H]1C(=O)N[C@@H]([C@@H](C)CC)C(=O)N(C)CC(=O)N(C)[C@H]2C/C=C\CCN(C2=O)[C@@H](Cc2ccc(C)cc2)C(=O)N(C)CC(=O)N[C@@H](CCc2ccc(C(F)(F)F)c(Cl)c2)C(=O)N2C[C@H](OCC)C[C@H]2C(=O)NC2(CC(C)(C)C2)C(=O)N(C)[C@@H](CC(C)C)C(=O)N(C)[C@H](C(=O)N(C)C)CC(=O)N1C [PP2224]	A (a compound having 10 or more and less than 20 is denoted as A)	A (a compound having 10 or more and less than 20 is denoted as A)
CCCOC[C@H]1C(=O)N[C@@H]([C@@H](C)CC)C(=O)N(C)CC(=O)N(C)[C@H]2C/C=C\CCN(C2=O)[C@@H](Cc2ccc(C)cc2)C(=O)N(C)CC(=O)N[C@@H](CCc2cc(F)c(C(F)(F)F)c(F)c2)C(=O)N2C[C@H](C)C[C@H]2C(=O)NC2(CCCC2)C(=O)N(C)[C@@H](C2CCCC2)C(=O)N(C)[C@H](C(=O)N(C)C)CC(=O)N1C [PP2225]	A (a compound having 10 or more and less than 20 is denoted as A)	A (a compound having 10 or more and less than 20 is denoted as A)
CCC[C@H]1C(=O)N[C@@H]([C@@H](C)CC)C(=O)N(C)CC(=O)N(C)[C@H]2C/C=C\CCN(C2=O)[C@@H](Cc2ccc(C)cc2)C(=O)N(C)CC(=O)N[C@@H](CCc2ccc(C(F)(F)F)c(Cl)c2)C(=O)N2C[C@H](OCC)C[C@H]2C(=O)NC2(CC(C)(C)C2)C(=O)N(C)[C@@H](CC(F)(F)F)C(=O)N(C)[C@H](C(=O)N(C)C)CC(=O)N1C [PP2226]	A (a compound having 10 or more and less than 20 is denoted as A)	A (a compound having 10 or more and less than 20 is denoted as A)
CCC[C@@H]1C[C@H]2C(=O)NC3(CCCC3)C(=O)N(C)[C@@H](C3CCCC3)C(=O)N(C)[C@H](C(=O)N(C)C)CC(=O)N(C)[C@@H](CC)C(=O)N[C@@H]([C@@H](C)CC)C(=O)N(C)CC(=O)N(C)[C@H]3C/C=C\CCN(C3=O)[C@@H](Cc3ccc(C)cc3)C(=O)N(C)CC(=O)N[C@@H](CCc3cc(F)c(C(F)(F)F)c(F)c3)C(=O)N2C1 [PP2227]	A (a compound having 10 or more and less than 20 is denoted as A)	A (a compound having 10 or more and less than 20 is denoted as A)
CCCOC[C@H]1C(=O)N[C@@H]([C@@H](C)CC)C(=O)N(C)CC(=O)N(C)[C@H]2C/C=C\CCN(C2=O)[C@@H](Cc2ccc(C)cc2)C(=O)N(C)CC(=O)N[C@@H](CCc2cc(F)c(C(F)(F)F)c(F)c2)C(=O)N2C[C@H](CCC)C[C@H]2C(=O)NC2(CCCC2)C(=O)N(C)[C@@H](C2CCCC2)C(=O)N(C)[C@H](C(=O)N(C)C)CC(=O)N1C [PP2229]	A (a compound having 10 or more and less than 20 is denoted as A)	A (a compound having 10 or more and less than 20 is denoted as A)
CCC[C@H]1C(=O)N[C@@H]([C@@H](C)CC)C(=O)N(C)CC(=O)N(C)[C@H]2C/C=C\CCN(C2=O)[C@@H](Cc2ccc(C)cc2)C(=O)N(C)CC(=O)N[C@@H](CCc2ccc(C(F)(F)F)c(Cl)c2)C(=O)N2C[C@H](OCC)C[C@H]2C(=O)NC2(CC(C)(C)C2)C(=O)N(C)[C@@H](CC(C)(C)C)C(=O)N(C)[C@H](C(=O)N(C)C)CC(=O)N1C [PP2230]	A (a compound having 10 or more and less than 20 is denoted as A)	A (a compound having 10 or more and less than 20 is denoted as A)
